Assay results: PubChem BioAssay AID179 (DTP/NCI, 2004)
Values joined by “and” are separate entries in the source; they are usually repeats but may differ in a detail not shown here. Equal entries are not always repeated. Active and inactive are the calls of the source.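 The calls were made as follows: active = compounds giving half or more protection of infected cells from virus-caused growth loss, again on retest; inactive = the rest.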

Test system: CEM cells HIV-1 protection, formazan growth assay
Experiment: NCI AIDS Antiviral Assay
Conditions: for IC50: measured here: growth of uninfected CEM cells
Outline: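 Protection of CEM cells against HIV-1 measured as cell growth via soluble formazan read-out, with five concentrations tested on both infected and uninfected cells; failure to protect may reflect toxicity.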

For Cc1nc2c(c(=O)[nH]1)OCN(C)C2, the EC50 was over 200 µM and the IC50 was 148 µM.
Compound Cc1ccc(C2=C(c3ccc(C)cc3)C(c3ccc(C)cc3)=C(c3ccc(C)cc3)C2=O)cc1 has an EC50 of over 16.2 µM and an IC50 of over 16.2 µM.
With CC(=O)c1cc2c(cc1C(C)C)CC[C@H]1[C@](C)(C#N)CCC[C@]21C the EC50 was over 200 µM and the IC50 was 174 µM and 126 µM.
COc1ccccc1C1ON=C(c2ccc([N+](=O)[O-])cc2)N1C12CC3CC(CC(C3)C1)C2 (stereo unspecified) gave an EC50 of over 200 µM and an IC50 of over 200 µM.
Compound COc1ccc(COCC[C@H](C)OC2OC(CO[Si](C)(C)C(C)(C)C)C(OC(=O)CCCN=[N+]=[N-])C(OC(=O)CCCN=[N+]=[N-])C2OC(=O)CCCN=[N+]=[N-])cc1 (stereo partly specified) has an EC50 of over 200 µM and an IC50 of 26.3 µM.
For O=C1c2ccccc2N2OC3(N4CCCC4)CCCCC3C12c1ccccc1 (stereo unspecified), the EC50 was over 10 µM and the IC50 was over 10 µM.
Work on C=CC1CN(C(=O)OCC)N(C(=O)OCC)C1CCc1ccccc1 (stereo unspecified) yielded an EC50 of over 200 µM and an IC50 of 72.4 µM.
CCOC(=O)Nc1sc2c(c1C#N)CCCC2 was tested, and the EC50 was 41.7 µM and the IC50 was 105 µM.
In the case of O=c1[nH]c(=O)n2n1CC(Br)C(Br)C2 (stereo unspecified), the outcome is reported as “inactive”.
In the case of O=C(O)CCSCc1cc(C(=O)Nc2ccc(/C=C/c3ccc(NC(=O)c4cc(CSCCC(=O)O)c5cccnc5c4O)cc3S(=O)(=O)O)c(S(=O)(=O)O)c2)c(O)c2ncccc12, the EC50 is reported as 1.51 µM and the IC50 is reported as 33.9 µM.
Work on C=CCCCCC1CCC2CCC(CCCCC=C)N12 (stereo unspecified) yielded an EC50 of over 95.5 µM and an IC50 of 79.4 µM.
With COC(=O)c1c(C(=O)OC)c(-c2ccccc2)n(-c2ccccc2)c(=O)c1-c1ccccc1 the outcome was “inactive”.
CCOP(=O)(OCC)C1CCCCOC1=O (stereo unspecified) was tested, and the outcome was “inactive”.
For CC1N(O)C(c2ccccc2)C(c2ccccc2)=[N+]1[O-] (stereo unspecified), the EC50 was over 200 µM and the IC50 was over 200 µM.
In the case of Cc1ccc(SCc2nc3ccccc3c(C)[n+]2[O-])cc1, the EC50 is reported as 9.33 µM and the IC50 is reported as 49 µM.
CC(C)(CN1CCCCC1)C(=O)/C=C/c1c(Cl)cccc1Cl gave an EC50 of over 200 µM and an IC50 of 1.86 µM.
With CC1Cc2c(N)nc(NN)nc2NC1=O (stereo unspecified) the outcome was “inactive”.
Cc1c(N=Nc2ccc(Cl)cc2)c(-c2ccccc2)n(C2OC(CO)C(O)C(O)C2O)c(=S)c1C#N (stereo unspecified) was tested, and the EC50 was over 200 µM and the IC50 was 37.2 µM.
O=C(O)c1nn(-c2ccccc2)nc1-c1nn(-c2ccccc2)nc1C(=O)O showed an EC50 of over 200 µM and an IC50 of over 200 µM.
COP(=O)(OC)/C(=C\C1=CN(C(c2ccccc2)(c2ccccc2)c2ccccc2)CN1)NC=O showed an EC50 of over 200 µM and an IC50 of 21.4 µM.
Compound N#Cc1ccc(Oc2ccccc2)cc1C#N has an EC50 of over 45.7 µM and an IC50 of over 45.7 µM.
Compound COc1cc(/C=C/C(=O)CC(=O)/C=C/c2ccc(O)c(O)c2)ccc1O has an EC50 of over 200 µM and an IC50 of 6.76 µM.
O=C(O)CSc1nnc(COc2ccc(Cl)cc2)n1-c1ccccc1 gave an EC50 of over 200 µM and an IC50 of 182 µM.
CSc1c(C#N)c2n(c3ccccc3[n+]2C)c2ncccc12 showed an EC50 of over 200 µM and an IC50 of 3.31 µM.
For O=C(O)c1cc(C(c2ccc(O)c(C(=O)O)c2)c2ccc(O)c(C(=O)O)c2)ccc1O, the EC50 was over 151 µM and the IC50 was 28.8 µM.
Work on NC(=O)c1ncn(CC2(CO)CCC2)n1 yielded an EC50 of over 200 µM and an IC50 of over 200 µM.
With CC(C)=CCC(O)[C@](C)(O)[C@H]1[C@H](O)C[C@@]2(C)[C@@H]3CCc4cc(O)c(OC5OC(CO)C(O)C(O)C5O)cc4C3(C)C(=O)C[C@]12C (stereo partly specified) the EC50 was over 200 µM and the IC50 was over 200 µM.
With COc1ccc(C(=O)C2CC3(CCC2(O)c2ccc(OC)cc2)CC(=O)Nc2ccccc2C3=O)cc1 (stereo unspecified) the EC50 was over 200 µM and the IC50 was 72.4 µM.
Work on CC(SCCCCCCSC(C)C(=O)O)C(=O)O (stereo unspecified) yielded an EC50 of over 851 µM and an IC50 of over 851 µM.
In the case of CC(=O)OC1=C2CC[C@@H]3C(CC[C@@]4(C)C3CC[C@@H]4OC(C)=O)[C@@]2(C)CC(C#N)C1=O (stereo partly specified), the outcome is reported as “inactive”.
With CC1=Nn2c(nc3sc4c(c3c2=O)CCCC4)SC1 the outcome was “inactive”.
With N#CC(C(=O)/C(=N/Nc1nc(=S)[nH]n1N)C(C#N)c1ccccc1)c1ccccc1 (stereo unspecified) the EC50 was over 17.4 µM and the IC50 was over 17.4 µM.
CCCCCC/C=C\CCCCCCCCCc1cccc(OC)c1O showed an EC50 of over 200 µM and an IC50 of over 200 µM.
With O=C1N[C@@H]2C(=C[C@H](O)[C@@H](O)[C@H]2O)c2cc3c(c(O)c21)OCO3 the outcome was “inactive”.
